Measurements taken from the supplement of paper PMC11208160.

Test: recombinant UMI read abundance after kanamycin selection (control-corrected) (log10(CPM+1)); higher = more efficient recombination; extreme values may be limits of the assay; sequences stand for … in AGTGCAGAGAAAATCGGCCAGTTTTCTCTGCCTGCAGTCCGCATGCCGTGGGACCCCTTGGGTTCTAACCTGTTGCCTAGATTTATGCAGCGGACTGCCTTTCTCCCAAAGTGATAAACCGG…AGGTTGGTTTCACT; site = the 11-nt donor
Outline: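 Sequenced counts of recombinant UMIs were turned into CPM, averaged across replicates and scaled with control-derived factors. The reported figure is log10(CPM+1). Those UMIs, each 12 nt long, tagged donor and donor-binding-loop pairs on a plasmid with a promoterless kanamycin gene, screened as a pool in Escherichia coli with IPTG (0.07 mM) plus kanamycin or without selection.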
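Also: IS621 bridge recombinase in Escherichia coli cells against a fixed T5 target plasmid.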

| Sequence | recombinant UMI read abundance (log10) |
| --- | --- |
| TGTCCAGCATGGACCGGTTTTCCCGGTAATCCGTATTTGTG (site TGTCCAGCTCA) | 0.0483 |
| TGTCCTACATGGACCGGTTTTCCCGGTAATCCGTATTTGTG (site TGTCCTACTCA) | 0.266 |
| TGTCGTCCATGGACCGGTTTTCCCGGTAATCCGTATTTGAG (site TGTCGTCCTCT) | 0.0062 |
| TGTGACGCATGGACCGGTTTTCCCGGTAATCCGTATTTGTG (site TGTGACGCTCA) | 0.239 |
| TGTGATGCATGGACCGGTTTTCCCGGTAATCCGTATTTGAC (site TGTGATGCTGT) | 1.65 |
| TGTGCTGCATGGACCGGTTTTCCCGGTAATCCGTATTTGTA (site TGTGCTGCTTA) | 0.0197 |
| TGTGGCTCATGGACCGGTTTTCCCGGTAATCCGTATTTGCT (site TGTGGCTCTAG) | 1.33 |
| TGTGTGACATGGACCGGTTTTCCCGGTAATCCGTATTTGTC (site TGTGTGACTGA) | 0 |
| TGTTAACCATGGACCGGTTTTCCCGGTAATCCGTATTTGCT (site TGTTAACCTAG) | 0 |
| TGTTCACCATGGACCGGTTTTCCCGGTAATCCGTATTTGTA (site TGTTCACCTTA) | 0.00651 |
| TGTTCACCATGGACCGGTTTTCCCGGTAATCCGTATTTGTA (site TGTTCCCCTTA) | 0.104 |
| TGTTCACCATGGACCGGTTTTCCCGGTAATCCGTATTTGTA (site TGTTCGCCTTA) | 0.00766 |
| TGTTCACCATGGACCGGTTTTCCCGGTAATCCGTATTTGTA (site TGTTCTCCTTA) | 0.00688 |
| TGTTCCCCATGGACCGGTTTTCCCGGTAATCCGTATTTGAA (site TGTTCCCCTTA) | 0.0134 |
| TGTTCCCCATGGACCGGTTTTCCCGGTAATCCGTATTTGAA (site TGTTCCCCTTC) | 0.011 |
| TGTTCCCCATGGACCGGTTTTCCCGGTAATCCGTATTTGAA (site TGTTCCCCTTG) | 0 |
| TGTTCCCCATGGACCGGTTTTCCCGGTAATCCGTATTTGAA (site TGTTCCCCTTT) | 0.0201 |
| TGTTCCCCATGGACCGGTTTTCCCGGTAATCCGTATTTGGA (site TGTTCCCCTTA) | 0.0182 |
| TGTTCCCCATGGACCGGTTTTCCCGGTAATCCGTATTTGGA (site TGTTCCCCTTC) | 0.128 |
| TGTTCCCCATGGACCGGTTTTCCCGGTAATCCGTATTTGGA (site TGTTCCCCTTG) | 0.00301 |
| TGTTCCCCATGGACCGGTTTTCCCGGTAATCCGTATTTGGA (site TGTTCCCCTTT) | 0.02 |
| TGTTCCCCATGGACCGGTTTTCCCGGTAATCCGTATTTGTC (site TGTTCCCCTAA) | 0.0126 |
| TGTTCCCCATGGACCGGTTTTCCCGGTAATCCGTATTTGTC (site TGTTCCCCTCA) | 0.00896 |
| TGTTCCCCATGGACCGGTTTTCCCGGTAATCCGTATTTGTC (site TGTTCCCCTGA) | 1.16 |
| TGTTCCCCATGGACCGGTTTTCCCGGTAATCCGTATTTGTC (site TGTTCCCCTTA) | 0.0152 |
| TGTTCCTCATGGACCGGTTTTCCCGGTAATCCGTATTTGTC (site TGTTCCTCTGA) | 0.553 |

| Sequence | recombinant UMI read abundance (log10) |
| --- | --- |
| TGTTCGGCATGGACCGGTTTTCCCGGTAATCCGTATTTGAC (site TGTTCGGCTGT) | 0.323 |
| TGTTCTTCATGGACCGGTTTTCCCGGTAATCCGTATTTGCC (site TGTTCTTCTGG) | 1.21 |
| TGTTGATCATGGACCGGTTTTCCCGGTAATCCGTATTTGAG (site TGTTGATCTCT) | 1.22 |
| TGTTTGGCATGGACCGGTTTTCCCGGTAATCCGTATTTGTG (site TATTTGGCTCA) | 0.0286 |
| TGTTTGGCATGGACCGGTTTTCCCGGTAATCCGTATTTGTG (site TCTTTGGCTCA) | 0.00613 |
| TGTTTGGCATGGACCGGTTTTCCCGGTAATCCGTATTTGTG (site TGTTTGGCTCA) | 0.161 |
| TGTTTGGCATGGACCGGTTTTCCCGGTAATCCGTATTTGTG (site TTTTTGGCTCA) | 0.0036 |
| TTAAATCCATGGACCGGTTTTCCCGGTAATCCGTATTTGGT (site TTAAATCCTAC) | 0.0199 |
| TTAATACCATGGACCGGTTTTCCCGGTAATCCGTATTTGAG (site TTAATACCTCT) | 0.0468 |
| TTAATTTCATGGACCGGTTTTCCCGGTAATCCGTATTTGCA (site TTAATTTCTTG) | 0.69 |
| TTACGTCCATGGACCGGTTTTCCCGGTAATCCGTATTTGCA (site TTACGTCCTTG) | 0.977 |
| TTACTACCATGGACCGGTTTTCCCGGTAATCCGTATTTGCG (site TTACTACCTCG) | 0.0128 |
| TTAGAACCATGGACCGGTTTTCCCGGTAATCCGTATTTGCA (site TTAGAACCTTG) | 0 |
| TTAGCCGCATGGACCGGTTTTCCCGGTAATCCGTATTTGAC (site TTAGCCGCTGT) | 2.72 |
| TTAGGATCATGGACCGGTTTTCCCGGTAATCCGTATTTGAT (site TTAGGATCTAT) | 2.58 |
| TTAGTTCCATGGACCGGTTTTCCCGGTAATCCGTATTTGTT (site TTAGTTCCTAA) | 0.183 |
| TTAGTTGCATGGACCGGTTTTCCCGGTAATCCGTATTTGTG (site TTAGATGCTCA) | 0.0164 |
| TTAGTTGCATGGACCGGTTTTCCCGGTAATCCGTATTTGTG (site TTAGCTGCTCA) | 0.0133 |
| TTAGTTGCATGGACCGGTTTTCCCGGTAATCCGTATTTGTG (site TTAGGTGCTCA) | 0.0142 |
| TTAGTTGCATGGACCGGTTTTCCCGGTAATCCGTATTTGTG (site TTAGTTGCTCA) | 1.15 |
| TTATAGGCATGGACCGGTTTTCCCGGTAATCCGTATTTGGA (site TTATAGGCTTC) | 0.419 |
| TTATGAGCATGGACCGGTTTTCCCGGTAATCCGTATTTGTC (site TTATGAGCTGA) | 2.45 |
| TTATGTGCATGGACCGGTTTTCCCGGTAATCCGTATTTGCT (site TTATGTGCTAG) | 2.36 |
| TTATTACCATGGACCGGTTTTCCCGGTAATCCGTATTTGAG (site TTATTACCTCT) | 0.00691 |
| TTATTTGCATGGACCGGTTTTCCCGGTAATCCGTATTTGTA (site TTATTTGCTTA) | 0.103 |
| TTCAACTCATGGACCGGTTTTCCCGGTAATCCGTATTTGAC (site TTCAACTCTGT) | 0 |
